# Experimental data from patent US12441687B2, “Drp1-filamin complex formation inhibitors” (RDISCOVERY, LLC, priority 2019, dated 2025).
# Assays:
# [1] = tested on: myocardial cells from the neonatal rat; experiment: Evaluation of degree of mitochondrial division under hypoxia (MitoTracker Green FM, image analysis); format: cell-based
# Experimental: A system for quantitatively evaluating degree of intracellular mitochondrial division was built. More specifically, myocardial cells obtained from a neonatal rat were cultured under normoxia (20%) or under hypoxia (1%) for 16 hours. The cells were then stained with a fluorescent dye (MitoTracker Green FM, from Thermo Fisher Scientific Inc.) that selectively stains mitochondria. The cells were observed under a fluorescent microscope, and the shape of mitochondria was quantified by image analysis.
# FIG. 2(c) is a graph that illustrates length of mitochondria from the myocardial cells of a neonatal rat cultured under normoxia or hypoxia. In FIG. 2(c), “Normoxia” represents results obtained from culture under the normal oxygen concentration, and “Hypoxia” represents results obtained from culture under the low oxygen concentration. […]
# Each of the aforementioned compounds was added to a culture medium of the myocardial cells from the neonatal rat, so as to adjust the final concentration to 1 μM, the cells were incubated for one hour, and further cultured under hypoxic environment for 16 hours. The cells were then stained in the same way as described in Exemplary Experiment 1 using MitoTracker Green FM (from Thermo Fischer Scientific Inc.), observed under a fluorescent microscope, and the shape of mitochondria was quantified. […]
# [2] = tested on: SOD1-G93A mice (ALS model); experiment: Survival of ALS model mice (SOD1-G93A) with cilnidipine administration; format: in vivo; details: osmotic pump 5,000 μg/kg intraperitoneally implanted after onset of ALS, 28 days, FIG. 4(b)
# Experimental: Effects of cilnidipine on intractable disease were examined. In this Exemplary Experiment, cilnidipine was administered to model mice of amyotrophic lateral sclerosis (ALS), and survival rate was examined. The ALS model mice employed were SOD1-G93A mice.
# FIG. 4(a) is a drawing that illustrates an experiment schedule. An osmotic pump containing 5,000 μg/kg of cilnidipine was intraperitoneally implanted into each model mouse after onset of ALS, the drug was administered continuously over 28 days, and the survival rate was measured.
# [3] = tested on: model mice of inflammatory bowel disease (DSS); experiment: Survival of DSS-induced inflammatory bowel disease model mice; format: in vivo; details: osmotic pump 25,000 μg/kg, 17 days, 3% DSS, FIG. 5(b)
# Experimental: Effects of cilnidipine on intractable disease were examined. In this Exemplary Experiment, cilnidipine was administered to model mice of inflammatory bowel disease, and survival rate was examined. The model mice of inflammatory bowel disease employed were mice on which inflammatory bowel disease is inducible by administrating dextran sulfate (DSS).
# FIG. 5(a) is a drawing that illustrates an experiment schedule. From three days before the administrating DSS started, an osmotic pump containing 25,000 μg/kg of cilnidipine was intraperitoneally implanted into each mouse, the drug was administered continuously over 17 days, and the survival rate was measured.
# From the first day (Day 0) the cilnidipine administration started, the mice were fed tap water containing 3% DSS as a drinking water for seven days. Over a period between Day 7 after the start of cilnidipine administration to Day 14, the drinking water was reverted to ordinary tap water. Also a control group was prepared, in which the mice were fed a solvent only in place of cilnidipine.
# [4] = tested on: model mice of type 1/2 diabetes (STZ); experiment: Blood sugar level in streptozotocin model mice of type 1/2 diabetes; format: in vivo; details: STZ 200 mg/kg mice, osmotic pump 5,000 μg/kg from 14th day, FIG. 6
# Experimental: Effects of cilnidipine on intractable disease were examined. In this Exemplary Experiment, cilnidipine was administered to model mice of type 1/2 diabetes, and the blood sugar level was measured over time. The model mice of type 1/2 diabetes employed were mice intraperitoneally administered 200 mg/kg of streptozotocin (STZ) on the 42nd day after birth. Also mouse without streptozotocin administration were prepared for comparison.
# Blood sugar levels of mice in the individual groups were measured over time after the start of experiment. On the 14th day after the start of experiment, an osmotic pump containing 5,000 μg/kg of cilnidipine or the solvent only was implanted into each mouse in each group, for prolonged administration.
# [5] = tested on: hypertensive and hyperglycemic patients; experiment: Retrospective analysis of blood HbA1c in hypertensive and hyperglycemic patients; format: in vivo, human; details: patients administered cilnidipine compared with patients administered amlodipine, FIG. 7
# Experimental: Effects of cilnidipine on intractable disease were examined. The results shown in this Exemplary Experiment were obtained from retrospective analyses on patients in Kyushu University Hospital. In this Exemplary Experiment, percentages of blood HbA1c in hypertensive and hyperglycemic patients administered amlodipine, and in hypertensive and hyperglycemic patients administered cilnidipine, were evaluated.
# [6] = tested on: H9c2 cell overexpressing wild type filamin A gene fused with mCherry tag; experiment: Mitochondrial division promoted by overexpressed wild type filamin A in H9c2 cells; format: cell-based, murine; details: Exemplary Experiment 9, 1 μM, 24 hours, FIG. 9(b)
# Experimental: (§1) An expression vector of wild type filamin A gene fused with mCherry tag, or, an expression vector of A1545T mutant of filamin A gene fused with mCherry tag was transduced into H9c2 cell, which is a murine heart striated muscle cell line, and allowed to overexpress. Also a group, having an expression vector of mCherry transduced and allowed to overexpress therein, was prepared for comparison.
# (§2) The cells were cultured for 24 hours, cilnidipine or NS4-238 was added to the culture medium while adjusting the final concentration to 1 μM, and the cells were further cultured for 24 hours. Also a group having DMSO added thereto in place of the drugs was prepared for comparison.
# (§3) The cells were then stained in the same way as described in Exemplary Experiment 1 using MitoTracker Green FM (from Thermo Fischer Scientific Inc.). The cells were observed under a fluorescent microscope, and the shape of mitochondria was quantified by image analysis.
# [7] = tested on: H9c2 cell overexpressing A1545T mutant of filamin A gene fused with mCherry tag; experiment: Mitochondrial division promoted by overexpressed A1545T mutant of filamin A in H9c2 cells; format: cell-based, murine; details: Exemplary Experiment 9, 1 μM, 24 hours, FIG. 9(b)
# Excerpt: A disease called filamin cardiomyopathy has been known to involve A1539T mutation (substitution of adenine at position 1539 to thymine) on filamin-C gene. Then influence of A1545T mutant of filamin A gene, similar to A1539T mutant of filamin-C gene, on the shape of mitochondria of myocardial cell was examined.
# as §1, §2, §3
# [8] = tested on: myocardial cells from neonatal rat; experiment: Aging of myocardial cell (p53 accumulation) under hypoxic-reoxygenation stimulation; format: cell-based; details: Exemplary Experiment 10, 1 μM, hypoxic (1%) 18 hours then normoxic (21%) 18 hours, FIG. 10
# Experimental: How the cilnidipine derivatives, synthesized in Exemplary Experiment 7, can affect aging of myocardial cell was examined. Aging of myocardial cell was evaluated on the basis of accumulation of p53 protein. More specifically, each of cilnidipine, and the individual compounds namely NS4-019, NS4-021 and NS4-043, synthesized in Exemplary Experiment 7, was added to a culture medium of the myocardial cells from neonatal rat, so as to adjust the final concentration to 1 μM, and the cells were incubated for one hour. The cells were then subjected to hypoxic-reoxygenation stimulation, by cultivation under hypoxic (1%) environment for 18 hours, followed by cultivation under normoxic (21%) environment for 18 hours. The cells in each culture were then fixed with 4% paraformaldehyde, and immunostained with anti-p53 antibody and anti-α-actinin antibody. α-Actinin is a marker of myocardial cell. The cells in each culture were observed under a fluorescent microscope, and percentage of p53 accumulating cells relative to the α-actinin-positive cells was determined.
# [9] = tested on: calcium channel; experiment: Calcium channel blocking: intracellular calcium increase after potassium chloride stimulation in Neuro-2a cells (Fura 2-AM); format: cell-based, murine
# Experimental: Effect of blocking the calcium channel by the cilnidipine derivative, synthesized in Exemplary Experiment 7, was examined. More specifically, first, Neuro-2a cells which belong to a cell line of murine neuroblastoma were cultured in serum-free culture media, and Fura 2-AM (from Dojindo Laboratories) as a calcium ion probe was added to the culture media, so as to transduce it into the cells.
# The culture media were then replaced with HEPES buffered nutrient solution (pH7.4), and each of cilnidipine, and the individual compounds namely NS4-019, NS4-021, NS4-043, NS4-238, and NS4-700, synthesized in Exemplary Experiment 7, was added to the culture media so as to adjust the final concentrations to 0, 1, 10, 100, and 1,000 nM, and the culture media were incubated for 30 minutes.
# Depolarizing stimulation was then given by adding potassium chloride solution (to a final concentration of 60 mM), and inflow of calcium ions into the cells was observed under a fluorescent microscope.
# FIG. 12 is a graph that illustrates increase of intracellular calcium ion concentration after potassium chloride stimulation. In FIG. 12, “CIL” represents results obtained from the cells having cilnidipine added thereto, “NS4-238” represents results obtained from the cells having NS4-238 added thereto, and “**” represents presence of significant difference at p<0.01. […]
# [10] = molecular target: Drp1-filamin complex (Homo sapiens, UniProt O00429+P21333); details: Non Patent Literature 1; cited from earlier work
# Sequence of Drp1-filamin complex (O00429 whole entry): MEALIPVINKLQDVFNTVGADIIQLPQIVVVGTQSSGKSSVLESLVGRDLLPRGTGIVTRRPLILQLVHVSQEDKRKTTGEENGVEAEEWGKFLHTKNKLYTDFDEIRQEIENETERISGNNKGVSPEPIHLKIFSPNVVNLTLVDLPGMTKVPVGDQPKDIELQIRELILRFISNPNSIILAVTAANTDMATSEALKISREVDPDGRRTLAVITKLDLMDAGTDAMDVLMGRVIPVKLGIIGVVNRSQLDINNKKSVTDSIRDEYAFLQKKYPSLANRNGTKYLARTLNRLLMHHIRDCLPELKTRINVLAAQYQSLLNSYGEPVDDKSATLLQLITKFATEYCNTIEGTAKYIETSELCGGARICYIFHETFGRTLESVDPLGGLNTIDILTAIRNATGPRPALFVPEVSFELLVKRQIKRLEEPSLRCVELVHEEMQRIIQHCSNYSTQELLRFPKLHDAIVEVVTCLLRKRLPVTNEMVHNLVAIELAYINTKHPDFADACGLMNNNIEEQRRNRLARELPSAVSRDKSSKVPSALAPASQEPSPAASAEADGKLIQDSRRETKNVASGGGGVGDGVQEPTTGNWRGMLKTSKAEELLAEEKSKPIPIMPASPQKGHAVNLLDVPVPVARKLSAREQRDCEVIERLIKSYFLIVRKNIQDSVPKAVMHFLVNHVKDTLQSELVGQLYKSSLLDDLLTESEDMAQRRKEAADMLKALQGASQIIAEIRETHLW
# Sequence of Drp1-filamin complex (P21333 whole entry): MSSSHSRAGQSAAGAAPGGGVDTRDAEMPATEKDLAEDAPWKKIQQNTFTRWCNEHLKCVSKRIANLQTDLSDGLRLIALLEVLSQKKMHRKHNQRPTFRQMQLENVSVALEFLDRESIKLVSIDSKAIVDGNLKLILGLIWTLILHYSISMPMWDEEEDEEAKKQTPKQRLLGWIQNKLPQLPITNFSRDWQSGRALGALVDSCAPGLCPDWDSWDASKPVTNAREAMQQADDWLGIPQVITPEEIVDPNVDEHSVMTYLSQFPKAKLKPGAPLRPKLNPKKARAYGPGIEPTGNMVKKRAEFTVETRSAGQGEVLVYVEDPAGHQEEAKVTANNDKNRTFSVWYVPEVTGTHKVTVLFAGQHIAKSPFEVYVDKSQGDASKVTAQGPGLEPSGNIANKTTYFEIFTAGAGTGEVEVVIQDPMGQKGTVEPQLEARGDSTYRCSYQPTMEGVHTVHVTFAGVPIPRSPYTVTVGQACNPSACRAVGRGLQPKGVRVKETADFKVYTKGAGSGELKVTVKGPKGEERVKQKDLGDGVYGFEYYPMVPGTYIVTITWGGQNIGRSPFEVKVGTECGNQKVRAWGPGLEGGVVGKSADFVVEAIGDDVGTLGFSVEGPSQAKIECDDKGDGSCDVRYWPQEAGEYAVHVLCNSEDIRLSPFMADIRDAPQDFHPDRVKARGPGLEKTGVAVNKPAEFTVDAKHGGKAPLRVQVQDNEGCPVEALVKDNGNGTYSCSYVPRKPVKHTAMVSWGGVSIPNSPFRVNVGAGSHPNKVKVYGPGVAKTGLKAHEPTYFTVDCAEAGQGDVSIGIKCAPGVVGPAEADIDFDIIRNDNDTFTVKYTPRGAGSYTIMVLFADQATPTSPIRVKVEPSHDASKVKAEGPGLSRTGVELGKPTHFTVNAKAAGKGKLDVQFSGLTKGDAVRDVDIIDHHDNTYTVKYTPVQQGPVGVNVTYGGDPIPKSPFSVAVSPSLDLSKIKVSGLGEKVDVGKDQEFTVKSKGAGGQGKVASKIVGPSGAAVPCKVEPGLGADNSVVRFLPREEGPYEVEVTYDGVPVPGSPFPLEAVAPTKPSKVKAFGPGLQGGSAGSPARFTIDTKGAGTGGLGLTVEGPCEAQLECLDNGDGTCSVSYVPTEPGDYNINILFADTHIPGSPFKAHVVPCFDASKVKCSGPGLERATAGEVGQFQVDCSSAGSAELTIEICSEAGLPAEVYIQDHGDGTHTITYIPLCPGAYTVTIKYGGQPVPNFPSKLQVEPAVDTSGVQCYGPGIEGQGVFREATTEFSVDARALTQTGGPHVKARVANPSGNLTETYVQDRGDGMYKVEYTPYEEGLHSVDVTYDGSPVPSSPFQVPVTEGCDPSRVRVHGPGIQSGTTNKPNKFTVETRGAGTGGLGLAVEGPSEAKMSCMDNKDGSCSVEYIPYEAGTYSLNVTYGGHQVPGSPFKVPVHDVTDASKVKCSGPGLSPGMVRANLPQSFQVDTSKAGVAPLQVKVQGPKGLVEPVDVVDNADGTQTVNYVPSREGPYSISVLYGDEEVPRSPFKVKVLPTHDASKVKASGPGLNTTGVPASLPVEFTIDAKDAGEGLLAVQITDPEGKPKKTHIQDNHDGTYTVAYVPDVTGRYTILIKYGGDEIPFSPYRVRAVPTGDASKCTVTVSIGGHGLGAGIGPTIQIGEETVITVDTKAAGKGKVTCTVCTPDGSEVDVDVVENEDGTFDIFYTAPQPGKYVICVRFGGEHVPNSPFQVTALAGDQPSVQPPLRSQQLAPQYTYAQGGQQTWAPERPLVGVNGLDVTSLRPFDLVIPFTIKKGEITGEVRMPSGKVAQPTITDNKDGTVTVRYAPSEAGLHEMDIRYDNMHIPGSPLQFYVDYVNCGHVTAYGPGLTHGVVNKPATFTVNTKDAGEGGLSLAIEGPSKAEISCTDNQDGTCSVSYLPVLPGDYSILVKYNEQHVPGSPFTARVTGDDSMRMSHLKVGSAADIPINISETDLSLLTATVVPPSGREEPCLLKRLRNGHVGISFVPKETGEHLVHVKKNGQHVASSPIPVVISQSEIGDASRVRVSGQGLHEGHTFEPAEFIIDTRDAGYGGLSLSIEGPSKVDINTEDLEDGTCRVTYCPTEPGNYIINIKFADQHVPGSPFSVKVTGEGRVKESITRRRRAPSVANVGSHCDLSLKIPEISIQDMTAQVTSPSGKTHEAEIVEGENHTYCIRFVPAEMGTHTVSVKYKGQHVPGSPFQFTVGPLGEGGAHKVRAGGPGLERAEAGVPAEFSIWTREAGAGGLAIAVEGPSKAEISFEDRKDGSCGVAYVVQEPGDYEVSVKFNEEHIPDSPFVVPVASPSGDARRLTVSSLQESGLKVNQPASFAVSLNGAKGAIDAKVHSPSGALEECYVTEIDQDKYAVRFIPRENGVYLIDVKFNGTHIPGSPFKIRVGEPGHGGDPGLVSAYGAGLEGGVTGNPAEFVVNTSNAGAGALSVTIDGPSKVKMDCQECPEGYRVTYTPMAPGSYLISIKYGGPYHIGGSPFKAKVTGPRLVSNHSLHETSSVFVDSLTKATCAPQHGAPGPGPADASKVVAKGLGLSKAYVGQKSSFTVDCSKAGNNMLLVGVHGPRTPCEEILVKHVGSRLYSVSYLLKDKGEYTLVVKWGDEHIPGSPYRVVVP
smiles,measurement,setting,value
COCCOC(=O)C1=C(C)NC(C)=C(C(=O)OC/C=C/c2ccccc2)C1c1cccc([N+](=O)[O-])c1 (stereo not drawn) [cilnidipine],percentage of cells having vesicular mitochondria (suppression of mitochondrial division),"[1]; Exemplary Experiment 2, 1 μM, hypoxic environment 16 hours, FIG. 3",significantly suppress mitochondrial division
same,percentage of cells having vesicular mitochondria (suppression of mitochondrial division),"[1]; Exemplary Experiment 11, 1 μM, hypoxic environment 18 hours, FIG. 11",significantly suppress mitochondrial division
same,survival rate,[2],significant elongation of lifetime
same,survival rate,[3],significant increase of the survival rate
same,blood sugar level,[4],blood sugar level getting closer to the normal level
same,percentage of blood HbA1c,[5],significant decrease of HbA1c
same,average length of mitochondrial fragments (suppression of mitochondrial division),[6],could not suppress mitochondrial division
same,average length of mitochondrial fragments (suppression of mitochondrial division),[7],could not suppress mitochondrial division
same,percentage of p53 accumulating cells relative to α-actinin-positive cells (aging of myocardial cell),[8],suppressive effects over aging of myocardial cell
same,"blocking effect on the calcium channel (ΔRatio, increase of intracellular calcium ion concentration)","[9]; Exemplary Experiment 12, 0, 1, 10, 100, and 1,000 nM, 30 minutes, 60 mM potassium chloride, FIG. 12",showed blocking effects exerted on the calcium channel
same,blocking effect on the calcium channel (ΔRatio),"[9]; Exemplary Experiment 15, at 1000 nM, FIG. 15",showed blocking effects on the calcium channel
same,inhibition of formation of the Drp1-filamin complex,[10],inhibits formation of the Drp1-filamin complex
